Reference: patent US5416209A, “5,6-dihydro-dibenz[b,e]azepine-6,11-dione-11-oximes” (Bayer Aktiengesellschaft, priority 1991, dated 1995)

Tested on: HIV virus (HIV-infected normal human blood lymphocytes (PBLs) or alternatively H9 cells)
Test: HIV infection in cell culture (inhibition of virus-induced syncytia)
Assay type: cell-based
Settings: Human immunodeficiency virus 1, 72 h, concentration at which 50% of the virus-induced syncytia are suppressed, day 3 to 6 after infection, 37° C.
Method: HIV infection in cell culture
The HIV test was carried out with slight modifications according to the method of Pauwels et al. [cf. Journal of Virological Methods 20, (1988), 309-321].
Normal human blood lymphocytes (PBLs) were concentrated by means of Ficoll-Hypaque and stimulated with phytohaemagglutinin (90 μg/ml) and interleukin-2 (40 U/ml) in RPMI 1640 and 20% foetal calf serum. For infection with the infectious HIV, PBLs were pelleted and the cell pellet was then suspended in 1 ml of HIV virus adsorption solution and incubated for 1 hour at 37° C.
Alternatively, HIV-susceptible H9 cells were employed instead of normal human blood lymphocytes for testing the antiviral effects of the compounds according to the invention.
The virus adsorption solution was centrifuged and the infected cell pellet was taken up in growth medium so that a concentration of 1×10^5 cells per ml was established. The cells infected in this way were pipetted into the wells of 96-well microtiter plates to give 1×10^4 cells/well.
The first vertical row of the microtiter plate contained only growth medium and cells which had not been infected, but otherwise treated exactly as described above (cell control). The second vertical row of the microtiter plate contained only HIV-infected cells (virus control) in growth medium. The other wells contained the compounds according to the invention in differing concentrations, starting from the wells of the 3rd vertical row of the microtiter plate, from which the test substances were diluted 2^10 times in 2-fold steps.
The test batches were incubated at 37° C. until, in the untreated virus control, the syncytia formation typical of HIV occurred (between day 3 and 6 after infection), which was then microscopically assessed. Under these test conditions, in the untreated virus control about 20-50 syncytia resulted, while the untreated cell control contained no syncytia.
The IC50 values were determined as the concentration of the treated and infected cells at which 50% (about 10-20 syncytia) of the virus-induced syncytia were suppressed by treatment with the compound according to the invention.

| SMILES | IC50 [nM] |
| --- | --- |
| Cc1ccnc2c1NC(=O)c1cccnc1N2C1CC1 [BIRG 587, reference compound] | 90 |
| CCO/N=c1/c2cc(Cl)ccc2[nH]c(=O)c2ccccc12 [Example 4, (E) -2-Chloro-11-ethoxyimino-6-oxo-5,6-dihydro-11-H-dibenz [b,e]azepine] | 60 |
| CON=c1c2cc(Cl)ccc2[nH]c(=O)c2ccccc12 [Example 6] | 1500 |
| CCO/N=c1\c2cc(Cl)ccc2[nH]c(=O)c2ccccc12 [Example 8] | 500 |
| O=c1[nH]c2ccc(Cl)cc2c(=NOCc2ccccc2)c2ccccc12 [Example 17] | 700 |
| O=c1[nH]c2ccc(Cl)cc2c(=NOCc2c(F)c(F)c(F)c(F)c2F)c2ccccc12 [Example 18] | 1000 |
| COC(=O)CON=c1c2cc(Cl)ccc2[nH]c(=O)c2ccccc12 [Example 24] | 2300 |
| O=c1[nH]c2ccc(Cl)cc2c(=NOC2CCCCO2)c2ccccc12 (centres unmarked) [Example 31] | 250 |
